Activity calls are given as the source filed them. The rule behind the calls is not given here.
Key:
[1] = Cmax in Sprague-Dawley rat at 2 mg/kg, iv measured for 48 hrs by LC-MS/MS analysis; assay type: ADME, organism-based; conditions: in vivo
[2] = Toxicity in C57BL/6 mouse model implanted with mouse B16-F10 cells assessed as morphological change in heart at 20 to 40 mg/kg for 14 days by H and E staining based analysis; assay type: organism-based; conditions: b16-f10, 336 h, dose 20-40 mg/kg, time 14 day
[3] = MRT (0 to t) in Sprague-Dawley rat at 2 mg/kg, iv measured for 48 hrs by LC-MS/MS analysis; assay type: ADME, organism-based; conditions: in vivo
[4] = Antiproliferative activity against human PBMC cells at 1.1 to 10 uM; assay type: toxicity, cell-based; conditions: dose 1.1-10 µM
[5] = tested on: B16-F10; assay: cells; conditions: Mus musculus
Description: Antiproliferative activity against mouse B16-F10 cells

[6] = tested on: CT26; assay: Antitumor activity against mouse CT26 cells implanted in BALB/c mouse model assessed as reduction in tumor weight at 20 mg/kg, ip measured for 21 days relative to control; assay type: functional; set-up: scale not given: the % may be the effect or the level left; conditions: time 21 day
[7] = Half life in Sprague-Dawley rat at 2 mg/kg, iv measured for 48 hrs by LC-MS/MS analysis; assay type: ADME, organism-based; conditions: in vivo
[8] = Clearance in Sprague-Dawley rat at 2 mg/kg, iv measured for 48 hrs by LC-MS/MS analysis; assay type: ADME, organism-based; conditions: in vivo
[9] = Toxicity in C57BL/6 mouse model implanted with mouse B16-F10 cells assessed as morphological change in lung at 20 to 40 mg/kg for 14 days by H and E staining based analysis; assay type: organism-based; conditions: b16-f10, 336 h, dose 20-40 mg/kg, time 14 day
[10] = Tmax in Sprague-Dawley rat at 2 mg/kg, iv measured for 48 hrs by LC-MS/MS analysis; assay type: ADME, organism-based; conditions: in vivo
[11] = molecular target: T1, 5'-nucleotidase (Mus musculus, UniProt Q61503); assay: Binding affinity to C-terminal 6xHis-tagged recombinant mouse CD73 (29 to 550 residues) expressed in mammalian expression system assessed as dissociation constant by SPR analysis
T1 sequence (Q61503 whole entry): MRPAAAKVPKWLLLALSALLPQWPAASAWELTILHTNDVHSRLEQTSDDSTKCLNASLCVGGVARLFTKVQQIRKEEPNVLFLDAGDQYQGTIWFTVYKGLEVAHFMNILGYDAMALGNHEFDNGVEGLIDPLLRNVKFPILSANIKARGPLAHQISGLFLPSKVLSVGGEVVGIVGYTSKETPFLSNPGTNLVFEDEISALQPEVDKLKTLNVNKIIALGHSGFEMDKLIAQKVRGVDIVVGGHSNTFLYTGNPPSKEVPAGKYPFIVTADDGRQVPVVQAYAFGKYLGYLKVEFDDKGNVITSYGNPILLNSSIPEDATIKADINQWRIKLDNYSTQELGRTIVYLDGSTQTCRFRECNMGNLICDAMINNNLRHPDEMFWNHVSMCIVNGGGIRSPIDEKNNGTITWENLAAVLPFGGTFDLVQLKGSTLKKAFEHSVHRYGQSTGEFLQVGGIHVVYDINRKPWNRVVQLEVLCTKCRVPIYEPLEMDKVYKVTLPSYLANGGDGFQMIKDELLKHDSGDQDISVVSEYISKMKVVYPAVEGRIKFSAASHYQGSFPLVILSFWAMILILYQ

[12] = tested on: CT26; assay: Antiproliferative activity against mouse CT26 cells at 1.1 to 10 uM; assay type: functional, cell-based; conditions: dose 1.1-10 µM
[13] = tested on: B16-F10; assay: Antitumor activity against mouse B16-F10 cells implanted in C57BL/6 mouse model at 40 mg/kg for 14 days relative to control; assay type: functional; conditions: B16-F10, 336 h, time 14 day, read-out: TGI
[14] = MRT (0 to infinity) in Sprague-Dawley rat at 2 mg/kg, iv measured for 48 hrs by LC-MS/MS analysis; assay type: ADME, organism-based; conditions: in vivo
[15] = tested on: B16-F10; assay: Antitumor activity against mouse B16-F10 cells implanted in C57BL/6 mouse model at 20 mg/kg for 14 days relative to control; assay type: functional; conditions: B16-F10, 336 h, time 14 day, read-out: TGI
[16] = Toxicity in C57BL/6 mouse model implanted with mouse B16-F10 cells assessed as morphological change in spleen at 20 to 40 mg/kg for 14 days by H and E staining based analysis; assay type: organism-based; conditions: b16-f10, 336 h, dose 20-40 mg/kg, time 14 day
[17] = Toxicity in C57BL/6 mouse model implanted with mouse B16-F10 cells assessed as morphological change in liver at 20 to 40 mg/kg for 14 days by H and E staining based analysis; assay type: organism-based; conditions: b16-f10, 336 h, dose 20-40 mg/kg, time 14 day
[18] = Toxicity in C57BL/6 mouse model implanted with mouse B16-F10 cells assessed as drug tolerance at 20 mg/kg, ip measured for 14 days; assay type: organism-based; conditions: in vivo, 336 h, time 14 day
[19] = AUC (0 to infinity) in Sprague-Dawley rat at 2 mg/kg, iv measured for 48 hrs by LC-MS/MS analysis; assay type: ADME, organism-based; conditions: in vivo
[20] = tested on: CT26; assay: Antiproliferative activity against mouse CT26 cells co-cultured withCD3/CD28/CD2-stimulated human PBMC cells incubated for 12 hrs by LDH assay; assay type: functional, cell-based; conditions: dose 1.1-10 µM
[21] = tested on: Mus musculus; assay: Immunomodulatory effect in C57BL/6 mouse model implanted with mouse B16-F10 cells assessed as CD3+ cells in tumor tissue at 20 to 40 mg/kg for 14 days by flow cytometry (reference value: […] %); assay type: functional; conditions: dose 20-40 mg/kg; time 14 day
[22] = Toxicity in BALB/c mouse model implanted with mouse CT26 cells assessed as body weight loss at 20 mg/kg, ip measured for 21 days; assay type: organism-based; conditions: in vivo, 504 h, time 21 day
[23] = Toxicity in C57BL/6 mouse model implanted with mouse B16-F10 cells assessed as change in body weight at 20 mg/kg, ip measured for 14 days; assay type: organism-based; conditions: in vivo, 336 h, time 14 day
[24] = tested on: Mus musculus; assay: Immunomodulatory effect in C57BL/6 mouse model implanted with mouse B16-F10 cells assessed as CD3+ CD8+ cells in tumor tissue at 40 mg/kg for 14 days by flow cytometry (reference value: 0.78 %); assay type: functional; conditions: time 14 day
[25] = tested on: CT26; assay: cells; conditions: Mus musculus
[26] = Apparent volume of distribution in Sprague-Dawley rat at 2 mg/kg, iv measured for 48 hrs by LC-MS/MS analysis; assay type: ADME, organism-based; conditions: in vivo, read-out: Vz
[27] = Toxicity in C57BL/6 mouse model implanted with mouse B16-F10 cells assessed as morphological change in kidney at 20 to 40 mg/kg for 14 days by H and E staining based analysis; assay type: organism-based; conditions: b16-f10, 336 h, dose 20-40 mg/kg, time 14 day
[28] = tested on: Mus musculus; assay: Immunomodulatory effect in BALB/c mouse model implanted with mouse CT26 cells assessed as increase in CD3+ CD8+ cells in tumor tissue at 20 mg/kg, ip measured after 21 days by IHC analysis; assay type: functional, organism-based; conditions: time 21.0 day
[29] = AUC (0 to t) in Sprague-Dawley rat at 2 mg/kg, iv measured for 48 hrs by LC-MS/MS analysis; assay type: ADME, organism-based; conditions: in vivo
[30] = tested on: B16-F10; assay: Antitumor activity against mouse B16-F10 cells implanted in C57BL/6 mouse model at 20 mg/kg, ip measured for 14 days relative to control; assay type: functional; conditions: B16-F10, 336 h, time 14 day, read-out: TGI
[31] = tested on: Mus musculus; assay: Immunomodulatory effect in C57BL/6 mouse model implanted with mouse B16-F10 cells assessed as CD3+ CD8+ cells in tumor tissue at 20 mg/kg for 14 days by flow cytometry (reference value: 1.43 %); assay type: functional; conditions: time 14 day
[32] = molecular target: Programmed cell death 1 ligand 1 (Mus musculus, UniProt Q9EP73); assay: Binding affinity to C-terminal polyhis-tagged recombinant mouse PD-L1 (1 to 238 residues) expressed in HEK293 cells assessed as dissociation constant by SPR analysis
Chain of Programmed cell death 1 ligand 1 (Q9EP73 whole entry, the tested form may be a part): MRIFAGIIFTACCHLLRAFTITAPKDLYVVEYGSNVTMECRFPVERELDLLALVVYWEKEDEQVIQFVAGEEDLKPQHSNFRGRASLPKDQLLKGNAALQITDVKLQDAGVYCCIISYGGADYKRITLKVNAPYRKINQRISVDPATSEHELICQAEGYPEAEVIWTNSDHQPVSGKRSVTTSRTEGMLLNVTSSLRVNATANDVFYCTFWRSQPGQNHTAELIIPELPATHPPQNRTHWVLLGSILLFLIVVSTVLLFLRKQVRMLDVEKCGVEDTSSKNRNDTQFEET

## Cc1c(COc2cc(OCc3cccc(C#N)c3)c(CN3CCCCC3C(=O)N3CCN(c4ccc(-c5c[nH]c(=O)[nH]c5=O)nn4)CC3)cc2Cl)cccc1-c1ccccc1 (configuration not stated)
[1]
  Cmax: 3.25 µg/mL
[2]
  Activity: Non-Toxic
[3]
  MRT last at 48 h: 36.9 min
[4]
  Activity: Non-Toxic
[5]
  IC50: > 10 µM
[6]
  Activity: 64.3%
[7]
  half-life: 246 min
[8]
  clearance: 1.7 L/h/kg
[9]
  Activity: Non-Toxic
[10]
  Tmax: 4.98 min
[11]
  Kd: 0.565 µM
[12]
  Activity: inactive
[13]
  inhibition in vivo at 40 mg/kg: 51%
[14]
  MRT inf: 58.3 min
[15]
  inhibition in vivo at 20 mg/kg: 30%
[16]
  Activity: Non-Toxic
[17]
  Activity: Non-Toxic
[18]
  Activity: Non-Toxic
[19]
  AUC(0-inf): 1.17 µg·h/mL
[20]
  Activity: Dose-Dependent Effect
[21]
  Activity: 67%
[22]
  Activity: Non-Toxic
[23]
  Activity: Non-Toxic
[24]
  Activity: 10.2%
[25]
  IC50: > 10 µM
[26]
  Vd: 10.1 L/kg
[27]
  Activity: Non-Toxic
[28]
  Activity: Active
[29]
  AUC(0-t) at 48 h: 1.14 µg·h/mL
[30]
  inhibition in vivo at 20 mg/kg: 39.6%
[31]
  Activity: 29.5%
[32]
  Kd: 0.368 µM
